Laboratory results reported in ChEMBL document CHEMBL6153089, “Design, Synthesis, and Biological Evaluation of Thieno[3,2-d]pyrimidine Derivatives as the First Bifunctional PI3Kδ Isoform Selective/Bromodomain and Extra-Terminal Inhibitors” (J Med Chem, 2025).
Calls of active or inactive are those of the source. No cut-off for these calls is given here.

Experiments:
[1] = Toxicity in female BALB/c mouse model xenografted with human SU-DHL-6 cells assessed as effect on heart histopathology at 20 mg/kg, po administered once daily via gavage for 15 days by H and E staining based analysis; type: organism-based; details: in vivo, 360 h, time 15 day
SUD4 [2] = assay: Induction of apoptosis in human SU-DHL-4 cells assessed as early apoptotic cells at 1 uM incubated for 24 hrs by Annexin V-FITC/PI staining based flow cytometric analysis (reference value: 25.3 %); type: functional
[3] = Toxicity in female BALB/c mouse model xenografted with human SU-DHL-6 cells assessed as effect on spleen histopathology at 20 mg/kg, po administered once daily via gavage for 15 days by H and E staining based analysis; type: organism-based; details: in vivo, 360 h, time 15 day
[4] = biological target: Bromodomain-containing protein 4 (Homo sapiens, UniProt O60885); assay: Inhibition of His-tagged BRD4-BD2 (unknown origin) incubated for 30 mins in presence of ATP by Alphascreen assay
[5] = Toxicity in female BALB/c mouse model xenografted with human SU-DHL-6 cells assessed as effect on body weight at 20 mg/kg, po administered once daily via gavage for 15 days; type: organism-based; details: in vivo, 360 h, time 15 day
SUD4 [6] = assay: Induction of apoptosis in human SU-DHL-4 cells assessed as necrotic cells at 0.25 uM incubated for 24 hrs by Annexin V-FITC/PI staining based flow cytometric analysis (reference value: 0.642 %); type: functional
SU-DHL-6 [7] = assay: Induction of apoptosis in human SU-DHL-6 cells assessed as early apoptotic cells at 0.25 uM incubated for 24 hrs by Annexin V-FITC/PI staining based flow cytometric analysis (reference value: 32.1 %); type: functional
SU-DHL-6 [8] = assay: Induction of apoptosis in human SU-DHL-6 cells assessed as late apoptotic cells at 1 uM incubated for 24 hrs by Annexin V-FITC/PI staining based flow cytometric analysis (reference value: 6.43 %); type: functional
[9] = biological target: PI3-kinase p110-alpha/p85-alpha (Homo sapiens, UniProt P42336); assay: Inhibition of p110alpha/p85alpha (unknown origin) incubated for 2 hrs in presence of ATP by ADP-kinaseGlo reagent based assay; type: protein-complex assay
[10] = Toxicity in female BALB/c mouse model xenografted with human SU-DHL-6 cells assessed as effect on lung histopathology at 20 mg/kg, po administered once daily via gavage for 15 days by H and E staining based analysis; type: organism-based; details: in vivo, 360 h, time 15 day
SUD4 [11] = assay: Induction of apoptosis in human SU-DHL-4 cells assessed as decrease in Bcl-2 protein expression at 0.25 to 1 uM incubated for 12 hrs by Western blot analysis; type: functional, cell-based; details: dose 0.25-1 µM
SUD4 [12] = assay: Induction of apoptosis in human SU-DHL-4 cells assessed as early apoptotic cells at 0.25 uM incubated for 24 hrs by Annexin V-FITC/PI staining based flow cytometric analysis (reference value: 25.3 %); type: functional
SU-DHL-6 [13] = assay: Antiproliferative activity against human SU-DHL-6 cells assessed as inhibition of cell proliferation by measuring reduction in cell count incubated for 6 days by photographic analysis; type: functional, cell-based; details: dose 12.5-50 nM, time 6.0 day
SUD4 [14] = assay: Antiproliferative activity against human SU-DHL-4 cells assessed as inhibition of cell proliferation by measuring reduction in cell count incubated for 6 days by photographic analysis; type: functional, cell-based; details: dose 25-100 nM, time 6.0 day
[15] = Toxicity in female BALB/c mouse model xenografted with human SU-DHL-6 cells assessed as effect on kidney histopathology at 20 mg/kg, po administered once daily via gavage for 15 days by H and E staining based analysis; type: organism-based; details: in vivo, 360 h, time 15 day
[16] = biological target: Phosphatidylinositol 4-phosphate 5-kinase type-1 alpha (Homo sapiens) (UniProt Q99755); assay: Inhibition of human PIP5K1alpha at 1 uM relative to control
SU-DHL-6 [17] = assay: Inhibition of AKT phosphorylation in human SU-DHL-6 cells incubated for 12 hrs by Western blot analysis; type: cell-based; details: dose 0.25-1 µM
[18] = Half-life in female BALB/c mouse at 20 mg/kg, po measured after 24 hrs by LC-MS/MS analysis; type: ADME, organism-based; details: in vivo
SUD4 [19] = assay: Induction of apoptosis in human SU-DHL-4 cells assessed as early apoptotic cells at 0.5 uM incubated for 24 hrs by Annexin V-FITC/PI staining based flow cytometric analysis (reference value: 25.3 %); type: functional
SUD4 [20] = assay: Antiproliferative against activity human SU-DHL-4 cells assessed as inhibition of cell growth incubated for 72 hrs by Celltiter-luminescence analysis; type: functional, cell-based; details: SU-DHL-4, 72 h
[21] = Cmax in female BALB/c mouse at 1 mg/kg, iv measured after 12 hrs by LC-MS/MS analysis; type: ADME, organism-based; details: in vivo
[22] = Half-life in female BALB/c mouse at 1 mg/kg, iv measured after 12 hrs by LC-MS/MS analysis; type: ADME, organism-based; details: in vivo
SU-DHL-6 [23] = assay: Antitumor activity against human SU-DHL-6 cells xenografted in female BALB/c mouse model assessed as reduction in phosphorylated AKT level in tumor at 20 mg/kg, po administered once daily via gavage for 15 days by Western blot analysis; type: functional, organism-based; details: time 15.0 day
Homo sapiens = species: Homo sapiens; assay: Inhibition of human p110alpha-H1047R mutant/p85alpha at 1 uM relative to control
SUD4 [24] = assay: Induction of apoptosis in human SU-DHL-4 cells assessed as viable cells at 0.25 uM incubated for 24 hrs by Annexin V-FITC/PI staining based flow cytometric analysis (reference value: 65.2 %); type: functional; details: read-out: Activity
SU-DHL-6 [25] = assay: Induction of apoptosis in human SU-DHL-6 cells assessed as late apoptotic cells at 0.25 uM incubated for 24 hrs by Annexin V-FITC/PI staining based flow cytometric analysis (reference value: 6.43 %); type: functional
[26] = biological target: PI3-kinase p110-delta/p85-alpha (Homo sapiens) (UniProt P27986+O00329); assay: Inhibition of p110delta/p85alpha (unknown origin) at 100 nM incubated for 2 hrs in presence of ATP by ADP-kinaseGlo reagent based assay relative to control; type: protein-complex assay
SU-DHL-6 [27] = assay: Induction of apoptosis in human SU-DHL-6 cells assessed as necrotic cells at 1 uM incubated for 24 hrs by Annexin V-FITC/PI staining based flow cytometric analysis (reference value: 0.246 %); type: functional
[28] = biological target: Phosphatidylinositol 3-kinase C2 domain-containing subunit gamma (Homo sapiens) (UniProt O75747); assay: Inhibition of human PI3KC2gamma at 1 uM relative to control
SU-DHL-6 [29] = assay: Induction of apoptosis in human SU-DHL-6 cells assessed as viable cells at 1 uM incubated for 24 hrs by Annexin V-FITC/PI staining based flow cytometric analysis (reference value: 61.2 %); type: functional; details: read-out: Activity
[30] = biological target: Glycogen synthase kinase-3 beta (Homo sapiens) (UniProt P49841); assay: Inhibition of GSK-3beta phosphorylation in human SU-DHL-4 cells at 0.25 to 1 uM incubated for 12 hrs by Western blot analysis; type: cell-based; details: dose 0.25-1 µM
SU-DHL-6 [31] = assay: Antitumor activity against human SU-DHL-6 cells xenografted in female BALB/c mouse model assessed as tumor growth inhibition at 20 mg/kg, po administered once daily via gavage for 15 days relative to control; type: functional; details: SU-DHL-6, 360 h, time 15 day, read-out: TGI
[32] = biological target: Phosphatidylinositol 4-phosphate 3-kinase C2 domain-containing subunit alpha (Homo sapiens) (UniProt O00443); assay: Inhibition of human PI3KC2alpha at 1 uM relative to control
Chain of Phosphatidylinositol 4-phosphate 3-kinase C2 domain-containing subunit alpha (Homo sapiens) (O00443 whole entry, the tested form may be a part): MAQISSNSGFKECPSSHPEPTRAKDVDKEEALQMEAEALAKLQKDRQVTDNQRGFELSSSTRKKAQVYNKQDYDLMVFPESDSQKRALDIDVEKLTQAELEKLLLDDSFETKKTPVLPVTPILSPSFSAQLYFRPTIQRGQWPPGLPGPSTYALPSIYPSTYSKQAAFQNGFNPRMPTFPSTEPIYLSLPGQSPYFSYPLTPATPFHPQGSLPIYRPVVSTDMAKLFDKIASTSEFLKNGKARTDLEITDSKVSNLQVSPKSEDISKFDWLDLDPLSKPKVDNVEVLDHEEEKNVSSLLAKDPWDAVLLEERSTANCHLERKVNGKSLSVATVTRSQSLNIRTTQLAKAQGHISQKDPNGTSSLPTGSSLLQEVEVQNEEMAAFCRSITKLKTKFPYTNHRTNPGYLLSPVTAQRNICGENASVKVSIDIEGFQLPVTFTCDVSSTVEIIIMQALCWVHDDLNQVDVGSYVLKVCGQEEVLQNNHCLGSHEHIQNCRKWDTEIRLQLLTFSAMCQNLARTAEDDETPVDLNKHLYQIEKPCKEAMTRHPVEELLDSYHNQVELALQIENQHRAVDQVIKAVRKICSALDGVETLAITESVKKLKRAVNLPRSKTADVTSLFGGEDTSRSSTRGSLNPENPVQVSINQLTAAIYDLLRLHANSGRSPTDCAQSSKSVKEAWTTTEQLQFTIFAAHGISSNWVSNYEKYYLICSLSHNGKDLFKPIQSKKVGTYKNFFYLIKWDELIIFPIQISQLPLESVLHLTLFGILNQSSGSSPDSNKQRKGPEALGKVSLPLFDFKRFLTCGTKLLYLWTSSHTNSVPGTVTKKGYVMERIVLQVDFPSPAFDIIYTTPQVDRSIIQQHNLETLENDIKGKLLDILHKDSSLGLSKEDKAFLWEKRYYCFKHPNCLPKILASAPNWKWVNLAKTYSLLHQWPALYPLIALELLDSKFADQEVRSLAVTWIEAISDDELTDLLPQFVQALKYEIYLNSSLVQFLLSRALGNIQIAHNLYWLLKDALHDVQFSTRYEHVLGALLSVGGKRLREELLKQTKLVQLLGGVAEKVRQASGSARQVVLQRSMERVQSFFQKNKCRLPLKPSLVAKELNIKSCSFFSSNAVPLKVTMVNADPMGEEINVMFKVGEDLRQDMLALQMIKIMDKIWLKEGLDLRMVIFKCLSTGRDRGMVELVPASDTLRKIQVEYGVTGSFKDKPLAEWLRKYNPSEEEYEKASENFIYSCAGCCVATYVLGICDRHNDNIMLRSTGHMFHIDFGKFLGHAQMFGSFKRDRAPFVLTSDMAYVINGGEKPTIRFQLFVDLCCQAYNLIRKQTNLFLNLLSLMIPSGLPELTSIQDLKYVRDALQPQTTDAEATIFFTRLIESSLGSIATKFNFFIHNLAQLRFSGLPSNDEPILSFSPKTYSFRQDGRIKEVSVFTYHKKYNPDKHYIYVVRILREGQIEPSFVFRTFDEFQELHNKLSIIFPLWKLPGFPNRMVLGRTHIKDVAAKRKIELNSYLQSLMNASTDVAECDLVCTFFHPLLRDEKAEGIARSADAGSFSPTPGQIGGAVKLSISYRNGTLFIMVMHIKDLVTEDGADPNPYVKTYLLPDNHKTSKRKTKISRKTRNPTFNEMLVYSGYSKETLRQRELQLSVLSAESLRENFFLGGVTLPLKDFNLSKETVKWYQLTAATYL

Chain of Phosphatidylinositol 3-kinase C2 domain-containing subunit gamma (Homo sapiens) (O75747 whole entry, the tested form may be a part): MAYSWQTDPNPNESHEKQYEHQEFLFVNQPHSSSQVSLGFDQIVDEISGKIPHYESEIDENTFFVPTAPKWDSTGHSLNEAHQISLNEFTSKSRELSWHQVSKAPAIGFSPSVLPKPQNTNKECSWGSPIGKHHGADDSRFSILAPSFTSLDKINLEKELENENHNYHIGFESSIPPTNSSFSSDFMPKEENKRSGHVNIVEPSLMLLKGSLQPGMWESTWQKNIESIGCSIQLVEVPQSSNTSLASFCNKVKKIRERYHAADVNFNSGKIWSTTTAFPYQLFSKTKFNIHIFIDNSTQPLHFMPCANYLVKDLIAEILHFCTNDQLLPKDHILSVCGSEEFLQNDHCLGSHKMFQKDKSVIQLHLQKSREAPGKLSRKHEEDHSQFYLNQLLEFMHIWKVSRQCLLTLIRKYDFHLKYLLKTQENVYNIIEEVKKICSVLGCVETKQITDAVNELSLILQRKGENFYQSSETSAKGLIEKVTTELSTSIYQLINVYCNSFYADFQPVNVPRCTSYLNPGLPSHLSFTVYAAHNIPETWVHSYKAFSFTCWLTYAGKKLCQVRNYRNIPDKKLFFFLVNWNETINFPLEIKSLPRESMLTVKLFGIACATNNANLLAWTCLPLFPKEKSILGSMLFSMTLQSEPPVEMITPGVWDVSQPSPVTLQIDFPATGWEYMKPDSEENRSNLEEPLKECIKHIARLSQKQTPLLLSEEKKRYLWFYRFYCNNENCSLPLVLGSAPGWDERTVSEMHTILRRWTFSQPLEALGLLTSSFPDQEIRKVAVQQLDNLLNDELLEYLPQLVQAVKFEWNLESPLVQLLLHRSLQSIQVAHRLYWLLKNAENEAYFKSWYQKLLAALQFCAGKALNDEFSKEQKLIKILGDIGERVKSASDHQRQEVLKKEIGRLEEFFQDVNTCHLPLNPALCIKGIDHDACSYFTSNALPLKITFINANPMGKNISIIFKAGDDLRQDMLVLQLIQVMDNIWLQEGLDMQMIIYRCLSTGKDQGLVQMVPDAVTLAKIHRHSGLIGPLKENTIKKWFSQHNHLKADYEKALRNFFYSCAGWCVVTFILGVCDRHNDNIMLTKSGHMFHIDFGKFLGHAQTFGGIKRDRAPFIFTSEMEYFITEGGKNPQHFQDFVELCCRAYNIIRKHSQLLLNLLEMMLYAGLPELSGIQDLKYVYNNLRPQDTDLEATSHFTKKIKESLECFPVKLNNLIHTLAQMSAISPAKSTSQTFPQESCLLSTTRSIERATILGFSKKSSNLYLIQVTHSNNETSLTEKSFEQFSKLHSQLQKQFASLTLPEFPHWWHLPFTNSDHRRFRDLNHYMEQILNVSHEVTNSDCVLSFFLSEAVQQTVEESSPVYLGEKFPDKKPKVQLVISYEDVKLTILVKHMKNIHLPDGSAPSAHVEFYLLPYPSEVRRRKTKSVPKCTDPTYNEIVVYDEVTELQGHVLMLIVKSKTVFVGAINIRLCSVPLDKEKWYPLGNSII
Chain of Phosphatidylinositol 4-phosphate 5-kinase type-1 alpha (Homo sapiens) (Q99755 whole entry): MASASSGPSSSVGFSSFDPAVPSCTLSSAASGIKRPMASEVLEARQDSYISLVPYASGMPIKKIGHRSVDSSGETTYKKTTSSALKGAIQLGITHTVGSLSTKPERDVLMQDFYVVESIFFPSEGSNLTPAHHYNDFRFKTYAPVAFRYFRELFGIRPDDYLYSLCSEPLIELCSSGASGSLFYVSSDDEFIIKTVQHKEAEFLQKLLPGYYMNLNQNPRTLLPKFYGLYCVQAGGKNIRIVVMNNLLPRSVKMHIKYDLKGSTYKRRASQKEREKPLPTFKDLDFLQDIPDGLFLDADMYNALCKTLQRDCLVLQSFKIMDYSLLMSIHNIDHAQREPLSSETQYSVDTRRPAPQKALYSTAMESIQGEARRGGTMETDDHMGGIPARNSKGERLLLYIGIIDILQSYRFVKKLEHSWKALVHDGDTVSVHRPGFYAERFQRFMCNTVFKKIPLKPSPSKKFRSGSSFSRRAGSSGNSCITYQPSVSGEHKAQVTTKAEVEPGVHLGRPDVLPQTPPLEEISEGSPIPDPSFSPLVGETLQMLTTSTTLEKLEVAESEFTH
Chain of Glycogen synthase kinase-3 beta (Homo sapiens) (P49841 whole entry, looked up): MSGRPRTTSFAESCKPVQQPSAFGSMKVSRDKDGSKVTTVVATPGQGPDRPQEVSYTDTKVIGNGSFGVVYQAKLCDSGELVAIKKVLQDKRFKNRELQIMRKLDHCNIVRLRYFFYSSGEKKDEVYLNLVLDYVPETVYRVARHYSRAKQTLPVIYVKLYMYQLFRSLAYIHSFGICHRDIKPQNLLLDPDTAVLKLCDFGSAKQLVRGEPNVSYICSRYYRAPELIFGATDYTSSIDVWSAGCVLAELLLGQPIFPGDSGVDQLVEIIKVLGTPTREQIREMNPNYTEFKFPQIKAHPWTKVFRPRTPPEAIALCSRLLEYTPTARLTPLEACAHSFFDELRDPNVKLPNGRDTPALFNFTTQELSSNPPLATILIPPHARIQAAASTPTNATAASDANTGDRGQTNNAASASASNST

Cn1cc(-c2nc(N3CCOCC3)c3sc(CN4CCC(C(C)(C)O)CC4)cc3n2)c2cc[nH]c2c1=O
Activity [1]: Non-toxic | Activity (SUD4 [2]): 45.3% | Activity [3]: Non-toxic | IC50 [4]: 0.002 µM | Activity [5]: Non-toxic | Activity (SUD4 [6]): 1.34% | Activity (SU-DHL-6 [7]): 39.5% | Activity (SU-DHL-6 [8]): 8.72% | IC50 [9]: 6.13 µM | Activity [10]: Non-toxic | Activity (SUD4 [11]): Active; Modest Effect Observed | Activity (SUD4 [12]): 32.4% | Activity (SU-DHL-6 [13]): Dose-dependent-effect; Stronger Effect Observed At Lower Concentration Than Those Of Sf2523 | Activity (SUD4 [14]): Dose-dependent-effect; Stronger Effect Observed At Lower Concentration Than Those Of Sf2523 | Activity [15]: Non-toxic | inhibition [16]: 72.6% | inhibition (SU-DHL-6 [17]): Dose-dependent-effect | half-life [18]: 3.8 h | Activity (SUD4 [19]): 30.8% | IC50 (SUD4 [20]): 0.091 µM | Cmax [21]: 544 ng/mL | half-life [22]: 2 h | Activity (SU-DHL-6 [23]): Active | inhibition (Homo sapiens): 33.7% | viability at 0.25 µM (SUD4 [24]): 53.7% | Activity (SU-DHL-6 [25]): 6.32% | inhibition [26]: 41.6% | Activity (SU-DHL-6 [27]): 0.58% | inhibition [28]: 15.6% | viability at 1 µM (SU-DHL-6 [29]): 41.8% | inhibition [30]: Active | inhibition in vivo at 20 mg/kg (SU-DHL-6 [31]): 70.8% | inhibition [32]: 3.4%
